Results as given in patent US7265246B2, “Indane derivates as muscarinic receptor agonists” (Eli Lilly and Company, priority 2003, dated 2007).
Where two headings read alike, the source gives them in different places.

Test system: Male Sprague-Dawley rats
Conditions: s.c. immediately after the sampling phase, six-hour delay

Nc1c2c(nc3ccccc13)CCCC2 [Tacrine, tacrine]
retention in the eight arm radial maze (3 mg/kg): not
retention in the eight arm radial maze (10 mg/kg): significantly improved retention
